In patent US20040023935A1, “Inhalation compositions, methods of use thereof, and process for preparation of same” (Dey, L.P., priority 2002, published 2004):
≈ marks a conversion by molar mass, not a printed value.

How the values were obtained:
[1] = Amount of fluticasone solubilized in aqueous TPGS composition, by order of addition/mixing; type: physicochemical; conditions: target concentration 180 mcg/ml; for solubility: aqueous TPGS composition, aqueous with cosolvent or surfactant or cyclodextrin
Procedure: In one embodiment, the drug is dissolved in the surfactant, such as molten TPGS, and then added to water. For example, when fluticasone propionate is prepared this way with a target concentration of 180 mcg/ml, the amount solubilized by addition of molten TPGS containing the drug to water is about 180 mcg/mL. The amount solubilized by addition of water to molten TPGS, followed by addition of the drug, is only 77 mcg/mL. If the aqueous phase is added to the molten TPGS, the TPGS phase forms a gel and this, apart from making the mixing process slower, makes the amount solubilized lower and variable.
Thus, in Process 1, aqueous phase is added to a solution of the drug in molten TPGS. In Process 2, a solution of the drug in molten TPGS is added to the aqueous phase. To avoid gel formation, the TPGS phase is added to the aqueous phase and slowly. Rapid addition may form gel. Also, high speed mixing reduces the formation of gel.

[2] = Fluticasone solubilized in molten surfactant phase at 60° C.; type: physicochemical
Procedure: Whether the cosolvent, if present, is added to either the molten TPGS phase or the aqueous phase prior to mixing of the concentrate and the aqueous phase has been found herein to affect the stability of the resulting diluted composition. […] Cosolvents such as propylene glycol (PG) and polyethylene glycol 400 (PEG 400) can influence the amount solubilized by affecting the amount dissolved in the molten TPGS phase.
However, the order of addition influences the amount of drug that may be solubilized. If PG or PEG 400 is added in the molten TPGS phase before adding the drug, the amount solubilized increases (see Table 6b, below).

| SMILES | solubility ([1]; addition of molten TPGS containing the drug to water) | solubility ([1]; addition of water to molten TPGS, followed by addition of the drug) | Amount solubilized as percent of theoretical concentration, Mean ([1]; Process 1 (Aqueous phase added to the TPGS phase all at once and then mixed)) | Amount solubilized as percent of theoretical concentration, Mean ([1]; Process 2 (TPGS phase added to aqueous phase slowly with mixing)) | Fluticasone solubilized in molten surfactant phase at 60° C. ([2]; Surfactant phase: TPGS alone) | Fluticasone solubilized in molten surfactant phase at 60° C. ([2]; Surfactant phase: TPGS and polyethylene glycol 400 (1:1)) | Fluticasone solubilized in molten surfactant phase at 60° C. ([2]; Surfactant phase: TPGS and propylene glycol (2.4:1)) |
| --- | --- | --- | --- | --- | --- | --- | --- |
| CCC(=O)O[C@]1(C(=O)SCF)[C@H](C)C[C@H]2[C@@H]3C[C@H](F)C4=CC(=O)C=C[C@]4(C)[C@@]3(F)[C@@H](O)C[C@@]21C [fluticasone propionate, (6α,9α,11α,16α,17α)-6,9-difluro-11-hydroxy-16-methyl-3-oxo-17-(1-oxopropoxy)androsta-1,4-diene-17-carbothioic acid, S-fluoromethyl ester] | ~180 µg/mL (≈ 360 µM) | 77 µg/mL (≈ 154 µM) | – | – | – | – | – |
| C[C@@H]1C[C@H]2[C@@H]3C[C@H](F)C4=CC(=O)C=C[C@]4(C)[C@@]3(F)[C@@H](O)C[C@]2(C)[C@@]1(O)C(=O)SCF [Fluticasone, (6α,9α,11α,16α,17α)-6,9-difluoro-11-hydroxy-16-methyl-3-oxo-17-hydroxyandrosta-1,4-diene-17-carbothioic acid, S-fluoromethyl ester] | – | – | 93.64% | 99.53% | 6.5 mg/g of TPGS | 20.0 mg/g of TPGS | 11.9 mg/g of TPGS |
